{"source": "patent US8399412B2", "about": "“Method of treating or preventing tissue deterioration, injury or damage due to periodontal disease or disease of oral mucosa, and/or downregulating NF-kappabeta or supressing NF-kappabeta-mediated actions” (priority 2006, dated 2013)", "key": {"[1]": {"tested_on": "NFκB p65 subunit", "test": "Nuclear translocation of NFκB p65 by immunofluorescence microscopy in HCET", "type": "cell-based, human", "conditions": "Tβ4 1 μg/ml during TNF-α stimulation, 30 minutes", "experimental": "HCET were cultured on collagen-coated 4 chambered glass microscope slides to approximately 80% confluence. […] Cells maintained in culture medium only, or Tβ4 only were used as controls. Cells were fixed in 3.7% glutaraldehyde/PBS for 10 minutes then washed in PBS. Cells were permeabilized in 1% Triton X-100 for 5 minutes and washed again. The cells were then incubated with rabbit polyclonal antibodies specific for the N-terminus of human p65 NFκB (Santa Cruz Biotechnologies, Santa Cruz, Calif.) followed by FITC-conjugated goat anti-rabbit secondary antibodies. Digitized images were captured and stored (Axiophot fluorescence microscopy and imaging system, Carl Zeiss Medicine, Inc., Thornwood, N.Y.).\nThe nuclear translocation of NFκB was also examined morphologically in HCET by immunofluoresence microscopy using an antibody specific for the p65 subunit."}, "[2]": {"tested_on": "IL-8", "test": "TNFα-induced IL-8 secretion by gingival fibroblasts (ELISA)", "type": "cell-based, Human", "conditions": "for secreted IL-8 versus fibroblasts not treated with Tβ4: gingival fibroblasts, 20 ng/ml TNF alpha", "experimental": "Human gingival Fb grown to 80% confluence, serum-starved, pretreated with Tb4 for one hour then with 20 ng/ml TNFa±Tb4 for 24 hours. […] of conditioned medium was used for ELISA. After removing medium, cells are fixed, stained, and lysed. OD 550 nm readings are used to normalize ELISA data for total cell number. Media control values were negligible and are not shown.\nHuman gingival fibroblasts (HGF-1, ATCC) were stimulated with TNFα (20 ng/ml), a potent pro-inflammatory cytokine widely used in in vitro models of inflammation."}, "[3]": {"tested_on": "NFκB", "test": "NFκB activity assay in TNF-α stimulated non-transformed human corneal epithelial cells (HCEC)", "type": "cell-based", "conditions": "non-transformed human corneal epithelial culture, Tβ4 treatment, results not shown", "experimental": "Non-transformed human corneal epithelial cells (HCEC) at passage 3 were purchased from Cascade Biologics (Portland, Oreg.). […] HCEC were used for experiments at passage 4. The transformed human corneal epithelial cell line 10.014 pRSV-T (HCET) was additionally used in this study. HCET were maintained in serum-free KGM on tissue culture plastic coated with a fibronectin-collagen type I matrix. Cells were cultured in a standard tissue culture incubator at 37° C. and in an atmosphere of 5% CO2 and 95% room air with medium changes every two days.\nAt each time point the culture medium was removed and the adherent cells were scraped from the dish into 1 ml of cold PBS. The solution was centrifuged at 3000 rpm for 5 minutes. The cell pellet was lysed in 1 ml of cell extraction buffer provided with the activity assay kit (TransAm NFκB p65 Transcription Factor Assay Kit, Active Motif, Carlsbad, Calif.) on ice for 30 minutes, with vortexing every 10 minutes. The extract was centrifuged at 13,000 rpm for 10 minutes at 4° C. and the supernatant was used for activity assays following the kit protocol. In addition to the activity assay, the ELISA for total NFκB p65 subunit protein was completed simultaneously using aliquots of the same supernatants. ELISA values were used to standardize the activity values to correct for differences in protein concentration in each sample. […]"}, "[4]": {"tested_on": "NFκB", "test": "NFκB activity assay (binding to consensus oligonucleotides) in TNF-α stimulated HCET", "type": "cell-based, human", "conditions": "TNF-α 10 ng/ml", "experimental": "At each time point the culture medium was removed and the adherent cells were scraped from the dish into 1 ml of cold PBS. The solution was centrifuged at 3000 rpm for 5 minutes. The cell pellet was lysed in 1 ml of cell extraction buffer provided with the activity assay kit (TransAm NFκB p65 Transcription Factor Assay Kit, Active Motif, Carlsbad, Calif.) on ice for 30 minutes, with vortexing every 10 minutes. The extract was centrifuged at 13,000 rpm for 10 minutes at 4° C. and the supernatant was used for activity assays following the kit protocol. In addition to the activity assay, the ELISA for total NFκB p65 subunit protein was completed simultaneously using aliquots of the same supernatants. ELISA values were used to standardize the activity values to correct for differences in protein concentration in each sample. The assays were repeated three times (n=3) and the results of a representative assay are reported as NFκB activity in arbitrary units±SEM. Statistical analysis was performed using the unpaired Student's t-test with significance set at P<0.05.\nWe hypothesized that Tβ4 functions as a transcription factor mediator in addition to its other known cellular functions. […] Transcription factor activity was analyzed calorimetrically using an assay that measured the ability of NFκB to bind to oligonucleotides containing consensus κB binding motifs immobilized to a plastic substrate. […]"}, "[5]": {"tested_on": "NFκB p65 subunit", "test": "Nuclear NFκB p65 protein level ELISA in HCET nuclear fractions", "type": "cell-based, human", "conditions": "TNF-α 10 ng/ml, Tβ4 1 μg/ml, 30 minutes, P=0.0066", "experimental": "HCET were cultured until approximately 80% confluent. […] Cells maintained in culture medium only, or Tβ4 only were used as controls. The culture medium was removed and the adherent cells were scraped from the dish into 1 ml of cold PBS. The solution was centrifuged at 3000 rpm for 5 minutes. The cell pellet was resuspended in 0.5 ml hypotonic buffer (20 mM Tris-HCl, pH 7.4, 10 mM NaCl, 3 mM MgCl2) and incubated on ice for 15 minutes. 25 μl of 10% NP-40 was added with vortexing. The homogenate was centrifuged for 10 minutes at 3000 rpm at 4° C. The pellet was resuspended in 100 μl of the cell extraction buffer and incubated for 30 minutes on ice with vortexing every 10 minutes. The homogenate was centrifuged at 14,000 rpm for 30 minutes at 4° C. The resulting supernatant was used for the NFκB total p65 subunit ELISA. A representative analysis is presented as NFκB protein (pg/ml)±SEM. Statistical analysis was performed using the unpaired Student's t-test with significance set at P<0.05.\nNuclear translocation is an essential downstream event in NFκB mediated gene transcription. […] HCET were treated for 30 minutes and the amount of NFκB protein in nuclear fractions was measured by ELISA. Only activated, phosphorylated NFκB is capable of translocating to the nucleus."}, "[6]": {"tested_on": "gingival fibroblasts", "test": "APOPercentage apoptosis assay in TNF-α stimulated gingival fibroblasts", "type": "cell-based, Human", "conditions": "TNF-α 20 ng/ml, 8 hours, 0.01 ug/ml Tβ4, p=0.0004", "experimental": "It is well documented that proteases from oral bacteria such as P. gingivalis can induce death in different cell types in vitro, including fibroblasts, epithelial cells, and endothelial cells. Apoptosis can also be induced as a component of the inflammatory response.\nThe fibroblasts were then assayed using the APOPercentage assay (Accurate Chemical, Westbury, N.Y.), which detects changes in cell membrane phospholipids. […] The absorbance of released dye can be measured and correlated to the relative amount of apoptosis in the culture. […] There were a greater number of apoptotic cells in fibroblasts stimulated with TNFα compared to cells stimulated with TNFα and also treated with Tβ4."}, "[7]": {"tested_on": "NFκB p65 subunit", "test": "NFκB p65 phosphorylation assay (CASE ELISA, phosphoserine 276) in HCET", "type": "cell-based, human", "conditions": "30 minutes", "experimental": "HCET were cultured in wells of a 96-well plate until approximately 80% confluent. […] At each time point adherent cells were fixed in cell fixing buffer containing 4% glutaraldehyde according to the phosphorylation assay kit protocol (CASE, cellular activation of signaling ELISA for phosphoserine 276 of NFκB p65 subunit, SuperArray, Frederick, Md.). Fixed cells were then processed using phospho-specific (phosphoserine 276 p65) or pan-protein specific (nonphosphorylated p65) primary antibodies and HRP-conjugated secondary antibodies. Following incubation with developing and stop solutions provided with the kit, individual well absorbance was read at 450 nm. Variation in cell number in individual wells was corrected by assaying the OD 540 nm of stained cells following completion of the phosphorylation assay and performing numerical correction of the OD 450 nm values. The assay was repeated twice (n=8) and a representative result is presented as relative amounts of phosphorylated and nonphosphorylated NFκB in arbitrary units±SEM. Statistical analysis was performed using the unpaired Student's t-test with significance set at P<0.05.\nIn addition to nuclear translocation, the p65 subunit of NFκB must undergo phosphorylation on several serine residues in order to be activated. […]"}}}
{"substance": "Thymosin beta 4 [Tβ4]", "values": [{"measurement": "NFκB p65 localization (fluorescence pattern)", "setting": "[1]", "value": "mainly perinuclear"}, {"measurement": "inhibition of TNFα-stimulated IL-8 secretion", "setting": "[2]; HGF-1 fibroblasts, TNFα 20 ng/ml, 0.01 ug/ml Tβ4, 24 hours, p=0.0012", "value": "most inhibition"}, {"measurement": "IL-8 secretion, dose response", "setting": "[2]; HGF-1 fibroblasts, TNFα 20 ng/ml, several concentrations of Tβ4, 24 hours, FIG. 3", "value": "inhibited IL-8 secretion in a dose-dependent manner"}, {"measurement": "secreted IL-8 versus fibroblasts not treated with Tβ4", "setting": "[2]; 1 ug/ml Tβ4, 24 hours, FIG. 1, p=0.0004", "value": "significantly lower levels of secreted IL-8"}, {"measurement": "secreted IL-8 versus fibroblasts not treated with Tβ4", "setting": "[2]; 5 ug/ml Tβ4, 24 hours, FIG. 1, p=0.0016", "value": "significantly lower levels of secreted IL-8"}, {"measurement": "secreted IL-8 versus fibroblasts not treated with Tβ4", "setting": "[2]; Tβ4 0.001-5 ug/ml (all levels), 24 hours", "value": "lower levels of secreted IL-8"}, {"measurement": "NFκB activity after TNF-α stimulation", "setting": "[3]", "value": "decreased NFκB activity"}, {"measurement": "NFκB activity versus cells stimulated with TNF-α", "setting": "[4]; Tβ4 1 μg/ml, 5, 10, 15 and 20 minutes of stimulation", "value": "increased NFκB activity"}, {"measurement": "TNF-α induced activation of NFκB", "setting": "[4]; Tβ4 1 μg/ml, 30 and 60 minutes", "value": "significantly suppressed"}, {"measurement": "NFκB protein in nuclear fractions", "setting": "[5]", "value": "significant decrease"}, {"measurement": "apoptotic cell death induced by TNF-α", "setting": "[6]", "value": "significantly inhibits apoptotic cell death"}, {"measurement": "reduction of NFκB phosphorylation levels", "setting": "[7]; TNF-α 10 ng/ml, Tβ4 1 μg/ml", "value": 45, "unit": "%"}, {"measurement": "proportion of phosphorylated NFκB", "setting": "[7]; Tβ4 present during TNF-α stimulation, 100% with TNF-α only", "value": 55, "unit": "%"}]}
